# Where a SMILES comes first, the peptide text is derived from it. [ ]: non-standard residue; d: D form. pS = N[C@@H](COP(=O)(O)O)C(=O)O
# Legend:
# Pin1 [1] = target: T1, Pin1 (Homo sapiens, UniProt Q13526); assay: Binding of peptides to 15N-labeled Pin1 by 2D 1H-15N HSQC NMR titration; set-up: decahistidine (10His) (N); made in house; own knowledge; conditions: 0.1 mM 15N-labeled Pin1, 90% H2O/10% D2O, 20 mM phosphate pH 7.0, 20 mM NaCl, 1 mM DTT, 0.01% NaN3, 300 K; HSQC chemical shift change vs ligand/protein ratio
# Protocol: NMR data were acquired at 300 K on a Bruker Avance 600 equipped with a cryoprobe accessory. The NMR samples contained 0.1 mM ^15N-labeled Pin 1 in 90% H2O/10% D2O in 20 mM phosphate buffer, pH 7.0, 20 mM NaCl, 1 mM DTT, 0.01% NaN3. Chemical shift perturbations were monitored with 2D ^1H-^15N heteronuclear single quantum correlation spectroscopy (HSQC) upon addition of peptides. NMR spectra were processed using Bruker Topspin1.3. For the dissociation constant determination, lyophilized aliquots of peptides were mixed with ^15N-labeled Pin1 with different molar ratios and 2D ^15N HSQC was recorded. The dissociation constant, KD is expressed as [P]*[L]/[PL] and calculated as previously described, [21], [22].
# Figure 3 Pin 1 binds to the phosphopeptide derived from the flexible loop of Bcl-2. The ^15N-labeled Pin1 (0.1 mM) was recorded with (A) 0.8 mM S87 and (B) phosphorylated S87 (pS87). The ^1H-^15N-HSQC spectra with or without peptide are show in blue and red, respectively. (C, D) Some of the amino acid chemical shifts change with the increasing peptide concentration. The arrows show the direction of chemical shift perturbations with an increasing concentration of ligand. (E, F) The relationship between chemical shift change and the ratio between ligand and protein was drawn. Values of KD were calculated from the graphs using the equation described in “Materials and methods”.
# ERK2 [2] = assay: Phosphorylation of Bcl-2 proteins by ERK2 (γ-32P-ATP, autoradiography); type: biochemical; conditions: 50 mM Tris-HCl, 10 mM MgCl2, 2 mM DTT, 1 mM EGTA, 0.01% Brij 35, pH 7.5, SDS-PAGE
# Protocol: (§1) For the phosphorylation of Bcl-2 by JNK, the purified Bcl-2 (6 µM) was incubated with 0.5 µM JNK for 1 h at 30°C in a buffer containing 10 mM Tris-HCl pH 7.5, 25 mM MgCl2, 1 mM EGTA, 1 mM ATP, 1 µCi γ-^32P-ATP, and 250 µM PMSF. For the phosphorylation of Bcl-2 by ERK2, ERK2 was incubated with purified Bcl-2 in a buffer containing 50 mM Tris-HCl, 10 mM MgCl2, 2 mM dithiothreitol (DTT), 1 mM EGTA, and 0.01% Brij 35 detergent, pH 7.5. The samples were separated on 12.5% gels by SDS-PAGE and visualized using autoradiography.
# (§2) Supplementary file pone.0052047.s001.tif: Figure S1 Phosphorylation of Bcl-2 in the loop domain by ERK2 and JNK. (A–B) Different peptides (200 µM) were added into the reaction mixture with either (A) JNK (10 µM) or (B) ERK2 (10 µM). After reaction at 30°C for 1 h, the samples were heated at 90°C to inactivate the kinase and loaded onto C-18 column for reverse phase-HPLC analysis. (C) Point mutations of Bcl-2 (T56A and S87A) were used for the kinase reaction as described in “Materials and methods”, and the phosphorylation reactions were analyzed by using γ-^32P-ATP and followed by autoradiography. […] (E) The wild-type Bcl-2 and the flexible loop-deletion Bcl-2 mutant Bcl-2, Δ(V35–V89):6A were subject to the phosphorylation reactions by ERK2 and JNK. 1, Bcl-2 with ERK2; 2, Bcl-2Δ(V35–V89):6A with ERK2; 3, Bcl-2 with JNK; 4, Bcl-2Δ(V35–V89):6A with JNK. […]
# JNK [3] = assay: Phosphorylation of Bcl-2 proteins by JNK (γ-32P-ATP, autoradiography); type: biochemical; conditions: Bcl-2 6 µM, JNK 0.5 µM, 1 h at 30°C, pH 7.5, γ-32P-ATP, SDS-PAGE
# Protocol: as §1, §2
# ERK2 [4] = assay: Phosphorylation of Bcl-2 loop peptides by ERK2 (HPLC); type: biochemical; conditions: peptide 200 µM, ERK2 10 µM, 50 mM Tris-HCl, 10 mM MgCl2, 2 mM DTT, 1 mM EGTA, 0.01% Brij 35, pH 7.5, 30°C, 1 h; C-18 HPLC, 225 nm
# Protocol: as §1
# (§3) The loop peptides (200 µM) were mixed with JNK or ERK2 (10 µM) in the reaction buffer as described above in the “Phosphorylation of Bcl-2”. The reaction was performed at 30°C for 1 h. The samples were passed through a Ni^2+-NTA column to remove kinases fused with the histidine-tag, and the flow-through samples were combined and loaded on a C-18 column for HPLC analysis. The samples (20 µl) were injected into the C-18 column with a flow rate of 1 ml/min. The peptide was eluted with a linear gradient of acetonitrile from 0 to 30%, and the peptide peaks were detected at 225 nm.
# (§4) Supplementary file pone.0052047.s001.tif: Figure S1 Phosphorylation of Bcl-2 in the loop domain by ERK2 and JNK. (A–B) Different peptides (200 µM) were added into the reaction mixture with either (A) JNK (10 µM) or (B) ERK2 (10 µM). After reaction at 30°C for 1 h, the samples were heated at 90°C to inactivate the kinase and loaded onto C-18 column for reverse phase-HPLC analysis. (C) Point mutations of Bcl-2 (T56A and S87A) were used for the kinase reaction as described in “Materials and methods”, and the phosphorylation reactions were analyzed by using γ-^32P-ATP and followed by autoradiography. […] (E) The wild-type Bcl-2 and the flexible loop-deletion Bcl-2 mutant Bcl-2, Δ(V35–V89):6A were subject to the phosphorylation reactions by ERK2 and JNK. 1, Bcl-2 with ERK2; 2, Bcl-2Δ(V35–V89):6A with ERK2; 3, Bcl-2 with JNK; 4, Bcl-2Δ(V35–V89):6A with JNK. (TIF) Click here for additional data file.
# JNK [5] = assay: Phosphorylation of Bcl-2 loop peptides by JNK (HPLC); type: biochemical; conditions: peptide 200 µM, JNK 10 µM, 10 mM Tris-HCl pH 7.5, 25 mM MgCl2, 1 mM EGTA, 1 mM ATP, 30°C, 1 h; C-18 HPLC, 225 nm
# Protocol: as §1, §3, §4
# Pin1 [6] = target: T1, Pin1; assay: 1H-15N HSQC titration of 15N-Pin1; conditions: reference: unphosphorylated S87 peptide; sites S87
# Pin1 [7] = target: T1, Pin1; assay: 1H-15N HSQC of 15N-Pin1 with peptide
molecule,measurement,setting,value
CC(C)C[C@H](NC(=O)[C@H](C)NC(=O)[C@@H]1CCCN1C(=O)CN)C(=O)N[C@@H](COP(=O)(O)O)C(=O)N1CCC[C@H]1C(=O)N[C@H](C(=O)N1CCC[C@H]1C(=O)N1CCC[C@H]1C(=O)N[C@H](C(=O)O)C(C)C)C(C)C [pS87] (H-GPAL[pS]PVPPV-OH),Kd,Pin1 [1],~140 µM
Bcl-2/S87A: single mutant form of Bcl-2 protein,ERK2-mediated phosphorylation of Bcl-2 protein,ERK2 [2],affected
same,JNK-mediated phosphorylation of Bcl-2 protein,JNK [3],affected
"PVARTSPLQT [S70, synthetic peptide derived from the Bcl-2 loop covering S70]",degree of phosphorylation by ERK2,ERK2 [4],poorly phosphorylated
same,degree of phosphorylation by JNK,JNK [5],poorly phosphorylated
"PLQTPAAPGA [T74, synthetic peptide derived from the Bcl-2 loop covering T74]",degree of phosphorylation by ERK2,ERK2 [4],poorly phosphorylated
same,degree of phosphorylation by JNK,JNK [5],poorly phosphorylated
Bcl-2 (from UniProt P10415) pS87 peptide,binding against the reference,Pin1 [6],gained; reference no interaction
Bcl-2 (from UniProt P10415) pT74 peptide,binding against the reference,"Pin1 [7]; reference: unphosphorylated T74 peptide, sites T74",gained
"QPGHTPHPAA [T56, synthetic peptide derived from the Bcl-2 loop covering T56]",degree of phosphorylation by ERK2,ERK2 [4],able to phosphorylate the T56 peptide to a similar level
same,degree of phosphorylation by JNK,JNK [5],able to phosphorylate the T56 peptide to a similar level
Bcl-2 (from UniProt P10415) pT56 peptide,binding against the reference,"Pin1 [7]; reference: unphosphorylated T56 peptide, sites T56",gained
Bcl-2/T56A: single mutant form of Bcl-2 protein,JNK-mediated phosphorylation of Bcl-2 protein,JNK [3],abolished
"GPALSPVPPV [S87, synthetic peptide derived from the Bcl-2 loop covering S87]",degree of phosphorylation by ERK2,ERK2 [4],preferred phosphorylation
same,degree of phosphorylation by JNK,JNK [5],preferred phosphorylation

# — article PMC3525568, “The Natively Disordered Loop of Bcl-2 Undergoes Phosphorylation-Dependent Conformational Change and Interacts with Pin1” (PLoS ONE, 2012)
